Test: recombinant barcode read abundance after kanamycin selection (control-corrected) (log10(CPM+1)); higher = more efficient recombination; sequences stand for … in AGTGCAGAGAAAATCGGCCAGTTTTCTCTGCCTGCAGTCCGCATGCCGT…ATTTATGCAGCGGACTGCCTTTCTCCCAAAGTGATAAACCGGACAGTATCATGGACCGGTTTTCCCGGTAATCCGTATTTGCAAGGTTGGTTTCACT; site = the 11-nt target
In short: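 Values are log10(CPM+1) from a pooled E. coli screen of targets paired with IS621 bridge RNA target-binding loops. Recombination efficiency here means counts per million of recombinant-junction barcodes, averaged and control-corrected. Plates were chloramphenicol/ampicillin LB agar for the control and chloramphenicol/ampicillin/kanamycin with 0.1 mM IPTG, two replicates each.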

Sequence	recombinant barcode read abundance (log10)
TGTATTCTGTGGGTTCTAACCTGTTGCCTCA [TGTATTCCTAG_LTGcore_TG_RTGcore_TG] (site TGTATTCCTAG) (LTG core: TG, RTG core: TG)	0.205
TTATAAAAGTGGGTTCTAACCTGTTGCCTAG [TTATAAACTAG_LTGcore_AG_RTGcore_CT] (site TTATAAACTAG) (LTG core: AG, RTG core: CT)	0.0357
TTATAAACATGGGTTCTAACCTGTTGCCTAG [TTATAAACTAG_LTGcore_CA_RTGcore_CT] (site TTATAAACTAG) (LTG core: CA, RTG core: CT)	0.314
TTATAAACGTGGGTTCTAACCTGTTGCCTAG [TTATAAACTAG_LTGcore_CG_RTGcore_CT] (site TTATAAACTAG) (LTG core: CG, RTG core: CT)	0.111
TTATAAACTTGGGTTCTAACCTGTTGCCTAA [TTATAAACTAG_LTGcore_CT_RTGcore_TT] (site TTATAAACTAG) (LTG core: CT, RTG core: TT)	0.0141
TTATAAAGATGGGTTCTAACCTGTTGCCTAG [TTATAAACTAG_LTGcore_GA_RTGcore_CT] (site TTATAAACTAG) (LTG core: GA, RTG core: CT)	0.0604
TTATAAAGTTGGGTTCTAACCTGTTGCCTAC [TTATAAACTAG_LTGcore_GT_RTGcore_GT] (site TTATAAACTAG) (LTG core: GT, RTG core: GT)	0.0636
TTATAAATGTGGGTTCTAACCTGTTGCCTCA [TTATAAACTAG_LTGcore_TG_RTGcore_TG] (site TTATAAACTAG) (LTG core: TG, RTG core: TG)	0.0981

Source: the supplement of paper PMC11208160
